Values after ≈ are worked out from the molar mass of the structure shown. Where two headings read alike, the source gives them in different places.
Columns and labels:
Staphylococcus Aureus [1] = test: In vivo activity in an acute lethal mouse infection model; details: 168 h, mice infected intraperitoneally with S. aureus, dosed at one hour and four hours post-infection, survivors on seventh day
Experimental: The in vivo potency of these compounds is exemplified by the data summarized in Table V. Determinations of in vivo efficacy are performed by inoculating mice intraperitoneally with cultures of the infecting organism diluted to produce 100% mortality in control animals within twenty-four hours. The culture of S. aureus used to infect the animals was diluted to the required bacterial density using 5% aqueous hog gastric mucin. The compounds are dissolved or suspended in 0.25% aqueous Methocel® (Methocel®: Hydroxypropyl Methylcellulose, E15 Premium, Dow Chemical Company) for oral administration or sterile distilled water containing 5% dimethylsulfoxide (Fisher Scientific Company, Fairlawn, NJ) for subcutaneous administration. The mice are dosed at one hour and at four hours post-infection. Mortality is recorded daily until test termination seven days post infection. The number of survivors in each treatment group on the seventh day after infection is used in the calculation of the ED₅₀, the dose of compound that protects 50% of the mice (Litchfield, J. T. and Wildoxon. A simplified method for evaluating dose-effect experiments. J. Pharmacol Exp. Ther., 96:99-113, 1949).

Escherichia coli = test: In vitro broth microdilution minimal inhibitory concentration (MIC), Mueller-Hinton broth; assay type: cell-based; details: 24-hour MIC, standard microdilution method, read-out: Minimum Inhibitory Concentration Escherichia coli
Text: (§1) A standard microdilution method (National Committee for Clinical Standards. Tentative standard M7-T. Standard methods for dilution antimicrobial susceptibility tests for bacteria that grow aerobically. National Committee for Clinical Laboratory Standards, Villanova, PA. 1982) with Mueller-Hinton broth is used to determine the 24-hour minimal inhibitory concentrations (MIC's) for test strains of Staphylococcus aureus and Escherichia coli.

Staphylococcus aureus [2] = test: as above; assay type: cell-based; details: 24-hour MIC, standard microdilution method, read-out: Minimum Inhibitory Concentration Staphylococcus aureus
Text: as §1

[3] = oral in 0.25% aqueous Methocel, read-out: ED₅₀ Oral Administration
[4] = sc, subcutaneous in sterile distilled water containing 5% dimethylsulfoxide, read-out: ED₅₀ Subcutaneous Administration

| Compound | ED50 (Staphylococcus Aureus [1]; [3]) [mg/kg] | ED50 (Staphylococcus Aureus [1]; [4]) [mg/kg] | MIC (Escherichia coli) [µg/mL] | MIC (Staphylococcus aureus [2]) [µg/mL] |
| --- | --- | --- | --- | --- |
| CC(=O)NC[C@H]1CN(c2ccc(C(=O)c3ccc(F)cc3)cc2)C(=O)O1 [Example 1, (ℓ)-N-[3-[4-(4-fluorobenzoyl)-phenyl]-2-oxooxazolidin-5-ylmethyl]acetamide] | 40 | 20 | > 128 | 4 (≈ 11.2 µM) |
| CC(=O)NC[C@H]1CN(c2ccc(C(=O)c3ccccc3)cc2)C(=O)O1 [Example 2] | 47 | 60 | > 128 | 4 (≈ 11.8 µM) |
| COc1ccc(C(=O)c2ccc(N3C[C@H](CNC(C)=O)OC3=O)cc2)cc1 [Example 3] | 41 | 15 | > 128 | 4 (≈ 10.9 µM) |
| CC(=O)NC[C@H]1CN(c2ccc(C(=O)c3cccc(F)c3)cc2)C(=O)O1 [Example 5] | 42 | 25 | > 128 | 8 (≈ 22.4 µM) |
| CC(=O)NC[C@H]1CN(c2ccc(C(=O)c3ccc(F)cc3F)cc2)C(=O)O1 [Example 6, (ℓ)-N-[3-[4-(2,4-difluorobenzoyl)phenyl]-2-oxooxazolidin-5-ylmethyl]acetamide] | 30 | 26 | > 128 | 1 (≈ 2.67 µM) |
| COc1cc(Cl)ccc1C(=O)c1ccc(N2C[C@H](CNC(C)=O)OC2=O)cc1 [Example 7] | > 120 | > 120 | > 128 | 32 (≈ 79.4 µM) |
| CSc1ccc(C(=O)c2ccc(N3C[C@H](CNC(C)=O)OC3=O)cc2)cc1 [Example 8] | > 90 | > 90 | > 128 | 4 (≈ 10.4 µM) |
| CC(=O)NC[C@H]1CN(c2ccc(C(=O)c3ccc([N+](=O)[O-])cc3)cc2)C(=O)O1 [Example 9, (ℓ)-N-[3-[4-(4-nitrobenzoyl)phenyl]-2-oxooxazolidin-5-ylmethyl]acetamide] | > 90 | > 90 | > 128 | 1 (≈ 2.61 µM) |
| CC(=O)NC[C@H]1CN(c2ccc(C(=O)c3ccc([S+](C)[O-])cc3)cc2)C(=O)O1 (stereo partly drawn) [Example 10] | > 90 | > 90 | > 128 | 16 (≈ 40 µM) |
| CC(=O)NC[C@H]1CN(c2ccc(C(=O)c3ccc(S(C)(=O)=O)cc3)cc2)C(=O)O1 [Example 11] | > 90 | > 90 | > 128 | 4 (≈ 9.6 µM) |
| CC(=O)NC[C@H]1CN(c2ccc(C(=O)c3cccnc3)cc2)C(=O)O1 [Example 15] | > 90 | 59 | > 128 | 8 (≈ 23.6 µM) |
| CC(=O)NC[C@H]1CN(c2ccc(C(O)c3ccccc3)cc2)C(=O)O1 (stereo partly drawn) [Example 20] | 65 | 52 | > 128 | 32 (≈ 94 µM) |

Source: patent EP0312000B1, “Aminomethyl oxooxazolidinyl aroylbenzene derivatives useful as antibacterial agents” (THE DU PONT MERCK PHARMACEUTICAL COMPANY, priority 1987, dated 1989)
